# According to PubChem BioAssay (NCI):
#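 96-well plates; 48 h exposure; 5 concentrations. Endpoints by linear interpolation between flanking doses. Not reached: highest tested concentration assigned. Here, GI50 denotes the concentration required for 50% inhibition of growth. Definition used: TGI = concentration required for complete inhibition of growth.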
# Assays:
# Assay in all cases: DTP human tumour cell line panel, 48 h
# [1] = system: RXF 393 renal
# [2] = system: SR leukemia
# [3] = system: HL-60(TB) leukemia
# [4] = system: HT29 colon
# [5] = system: SW-620 colon
# [6] = system: CCRF-CEM leukemia
# [7] = system: UACC-62 melanoma
# [8] = system: CAKI-1 renal
# [9] = system: SK-MEL-2 melanoma
# [10] = system: KM12 colon
# [11] = system: UO-31 renal
# [12] = system: SK-OV-3 ovarian
# [13] = system: 786-0 renal
# [14] = system: RPMI-8226 leukemia
# [15] = system: HS 578T breast
# [16] = system: K-562 leukemia
# [17] = system: EKVX NSCLC
# [18] = system: OVCAR-3 ovarian
# [19] = system: A549 NSCLC
# [20] = system: SK-MEL-5 melanoma
# [21] = system: NCI-H460 lung
# [22] = system: TK-10 renal
# [23] = system: HOP-62 NSCLC
# [24] = system: SF-268 CNS
# [25] = system: HCC-2998 colon
# [26] = system: U251 CNS
# [27] = system: ACHN renal
# [28] = system: SN12C renal
# [29] = system: M14 melanoma
# [30] = system: OVCAR-4 ovarian
# [31] = system: SF-295 CNS
# [32] = system: NCI-H522 lung
# [33] = system: MOLT-4 leukemia
# [34] = system: IGROV1 ovarian
# [35] = system: LOX IMVI melanoma
# [36] = system: HCT-15 colon
# [37] = system: A498 renal
# [38] = system: SNB-75 CNS
# [39] = system: OVCAR-8 ovarian
# [40] = system: MDA-MB-435
# [41] = system: SNB-19 CNS
# [42] = system: HOP-92 NSCLC
# [43] = system: T-47D breast
# [44] = system: UACC-257 melanoma
# [45] = system: NCI-H226 lung
# [46] = system: MCF7 breast
# [47] = system: NCI-H23 lung
# [48] = system: PC-3 prostate
# [49] = system: OVCAR-5 ovarian
# [50] = system: COLO 205 colon
# [51] = system: HCT-116 colon
# [52] = system: DU-145 prostate
# [53] = system: MDA-MB-231 breast
# [54] = system: BT-549 breast
# [55] = system: SK-MEL-28 melanoma
# [56] = system: SF-539 CNS
compound,measurement,setting,value
COc1ccc(-c2n[nH]nc2-c2cc(OC)c(OC)c(OC)c2)cc1,GI50,[1],< 0.01 µM
same,TGI,[1],26.2 µM
same,GI50,[2],< 0.01 µM
same,TGI,[2],> 47.9 µM
same,GI50,[3],< 0.01 µM
same,TGI,[3],< 0.01 µM
same,GI50,[4],< 0.01 µM
same,TGI,[4],0.0481 µM
same,GI50,[5],< 0.01 µM
same,TGI,[5],> 100 µM
same,GI50,[6],< 0.01 µM
same,TGI,[6],> 40.8 µM
same,GI50,[7],< 0.01 µM
same,TGI,[7],24.6 µM
same,GI50,[8],< 0.01 µM
same,TGI,[8],> 56.4 µM
same,GI50,[9],< 0.01 µM
same,TGI,[9],43.4 µM
same,GI50,[10],< 0.01 µM
same,TGI,[10],0.0445 µM
same,GI50,[11],0.207 µM
same,TGI,[11],28 µM
same,GI50,[12],< 0.01 µM
same,TGI,[12],0.44 µM
same,GI50,[13],< 0.01 µM
same,TGI,[13],17.5 µM
same,GI50,[14],< 0.01 µM
same,TGI,[14],> 32.4 µM
same,GI50,[15],< 0.01 µM
same,TGI,[15],> 83.9 µM
same,GI50,[16],< 0.01 µM
same,TGI,[16],> 100 µM
same,GI50,[17],< 0.01 µM
same,TGI,[17],29.6 µM
same,GI50,[18],< 0.01 µM
same,TGI,[18],< 0.01 µM
same,GI50,[19],< 0.01 µM
same,TGI,[19],38.3 µM
same,GI50,[20],< 0.01 µM
same,TGI,[20],0.0224 µM
same,GI50,[21],< 0.01 µM
same,TGI,[21],26.3 µM
same,TGI,[22],50.2 µM
same,GI50,[23],< 0.01 µM
same,TGI,[23],> 73.2 µM
same,GI50,[24],0.0156 µM
same,TGI,[24],> 100 µM
same,GI50,[25],0.0189 µM
same,TGI,[25],19.5 µM
same,GI50,[26],< 0.01 µM
same,GI50,[27],0.0169 µM
same,TGI,[27],> 100 µM
same,GI50,[28],< 0.01 µM
same,TGI,[28],> 100 µM
same,GI50,[29],< 0.01 µM
same,TGI,[29],17.8 µM
same,GI50,[30],< 0.0144 µM
same,TGI,[30],43.3 µM
same,GI50,[31],< 0.01 µM
same,TGI,[31],> 100 µM
same,GI50,[32],< 0.01 µM
same,TGI,[32],< 0.01 µM
same,GI50,[33],0.0185 µM
same,GI50,[34],< 0.01 µM
same,TGI,[34],9.23 µM
same,GI50,[35],< 0.01 µM
same,TGI,[35],> 57 µM
same,GI50,[36],< 0.01 µM
same,TGI,[36],> 100 µM
same,GI50,[37],< 0.01 µM
same,TGI,[37],< 0.0277 µM
same,GI50,[38],< 0.01 µM
same,TGI,[38],92.9 µM
same,GI50,[39],< 0.01 µM
same,TGI,[39],22 µM
same,GI50,[40],< 0.01 µM
same,TGI,[40],< 0.01 µM
same,TGI,[41],> 100 µM
same,GI50,[42],< 0.0195 µM
same,TGI,[42],30.6 µM
same,GI50,[43],2.66 µM
same,TGI,[43],57.3 µM
same,GI50,[44],< 0.01 µM
same,TGI,[44],31.2 µM
same,GI50,[45],< 0.0225 µM
same,TGI,[45],82.7 µM
same,GI50,[46],< 0.01 µM
same,TGI,[46],> 80.7 µM
same,GI50,[47],< 0.01 µM
same,TGI,[47],36.4 µM
same,GI50,[48],0.0638 µM
same,TGI,[48],> 100 µM
same,GI50,[49],< 0.01 µM
same,TGI,[49],> 100 µM
same,GI50,[50],0.0358 µM
same,TGI,[50],0.132 µM
same,GI50,[51],< 0.01 µM
same,TGI,[51],> 100 µM
CNc1ccc(C(=O)CC(O)CCC(C)C2OC(=O)CC(O)CC(=O)CC(O)CC(O)CC(O)CC(O)CC3(O)CC(O)C(C(=O)OC)C(CC(O[C@@H]4O[C@H](C)[C@@H](O)[C@H](N)[C@@H]4O)/C=C/C=C/C=C/C=C/C=C/C=C/C=C/C2C)O3)cc1 (stereo partly specified),GI50,[1],1.72 µM
same,TGI,[1],4.46 µM
same,GI50,[2],2.33 µM
same,TGI,[2],5.47 µM
same,GI50,[3],2.9 µM
same,TGI,[3],7.04 µM
same,GI50,[4],3.63 µM
same,TGI,[4],24.7 µM
same,GI50,[5],5.33 µM
same,TGI,[5],40.5 µM
same,GI50,[7],2.49 µM
same,TGI,[7],> 100 µM
same,GI50,[8],1.88 µM
same,TGI,[8],4.89 µM
same,GI50,[9],3.59 µM
same,TGI,[9],8.86 µM
same,GI50,[10],3.9 µM
same,TGI,[10],12.4 µM
same,GI50,[12],2.66 µM
same,TGI,[12],6.92 µM
same,GI50,[14],3.57 µM
same,TGI,[14],54.5 µM
same,GI50,[16],5.05 µM
same,TGI,[16],40.2 µM
same,GI50,[18],2.73 µM
same,TGI,[18],6.26 µM
same,GI50,[52],1.85 µM
same,TGI,[52],3.55 µM
same,GI50,[20],1.42 µM
same,TGI,[20],3.17 µM
same,GI50,[21],2.97 µM
same,TGI,[21],10.1 µM
same,GI50,[23],2.27 µM
same,TGI,[23],5.03 µM
same,GI50,[24],2.82 µM
same,TGI,[24],7.46 µM
same,GI50,[25],3.25 µM
same,TGI,[25],12.3 µM
same,GI50,[26],3.87 µM
same,TGI,[26],56.4 µM
same,GI50,[28],1.46 µM
same,TGI,[28],2.99 µM
same,GI50,[29],2.26 µM
same,TGI,[29],7.32 µM
same,GI50,[53],2.88 µM
same,TGI,[53],> 100 µM
same,GI50,[54],3.45 µM
same,TGI,[54],> 100 µM
same,GI50,[31],2.63 µM
same,TGI,[31],9.67 µM
same,GI50,[32],2.48 µM
same,TGI,[32],6.03 µM
same,GI50,[33],2.62 µM
same,TGI,[33],6.31 µM
same,GI50,[34],2.96 µM
same,TGI,[34],7.94 µM
same,GI50,[35],3.3 µM
same,TGI,[35],> 100 µM
same,GI50,[36],4.9 µM
same,TGI,[36],> 100 µM
same,GI50,[37],1.23 µM
same,TGI,[37],2.89 µM
same,GI50,[38],2.83 µM
same,TGI,[38],30.8 µM
same,GI50,[40],2.02 µM
same,TGI,[40],6.19 µM
same,GI50,[41],3.82 µM
same,TGI,[41],> 100 µM
same,GI50,[55],1.12 µM
same,TGI,[55],2.53 µM
same,GI50,[42],3.27 µM
same,TGI,[42],> 100 µM
same,GI50,[43],3.37 µM
same,TGI,[43],> 100 µM
same,GI50,[44],1.45 µM
same,TGI,[44],3.18 µM
same,GI50,[46],3.18 µM
same,TGI,[46],19 µM
same,GI50,[47],1.92 µM
same,TGI,[47],4.84 µM
same,GI50,[56],13.6 µM
same,TGI,[56],47.9 µM
same,GI50,[49],3.7 µM
same,TGI,[49],> 100 µM
same,GI50,[50],2.69 µM
same,TGI,[50],6.6 µM
same,GI50,[51],3.46 µM
same,TGI,[51],> 100 µM
